Data reported in article PMC4823954, “From fighting depression to conquering tumors: a novel tricyclic thiazepine compound as a tubulin polymerization inhibitor” (Cell Death & Disease, 2016).

What was measured:
Assay in all cases: KINOMEscan
Format in all cases: binding
Conditions in all cases: read-out: % Ctrl
PFTAIRE2 = target: T1, PFTAIRE2 (Homo sapiens, UniProt Q96Q40)
T1 construct: purchased DiscoveRx KINOMEscan
How it was run: (§1)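 Competition binding panel of 442 non-mutant kinases: test compound at 5 and 10 μM competed with an active-site-directed ligand for 1 h with shaking. Bound kinase was eluted with 0.5 μM ligand and quantified by qPCR; %Ctrl = (compound − positive control)/(DMSO − positive control) × 100, lower meaning tighter binding.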

ERK1 = target: T2, ERK1 (Homo sapiens, UniProt P27361)
T2 construct: purchased DiscoveRx KINOMEscan
How it was run: as §1

HIPK2 = target: T3, HIPK2 (Homo sapiens, UniProt Q9H2X6)
T3 construct: purchased DiscoveRx KINOMEscan
How it was run: as §1

ULK3 = target: T4, ULK3 (Homo sapiens, UniProt Q6PHR2)
T4 construct: purchased DiscoveRx KINOMEscan
How it was run: as §1

EPHA3 = target: T5, EPHA3 (Homo sapiens, UniProt P29320)
T5 construct: purchased DiscoveRx KINOMEscan
How it was run: as §1

VRK2 = target: T6, VRK2 (Homo sapiens, UniProt Q86Y07)
T6 construct: purchased DiscoveRx KINOMEscan
How it was run: as §1

NLK = target: T7, NLK (Homo sapiens, UniProt Q9UBE8)
T7 construct: purchased DiscoveRx KINOMEscan
How it was run: as §1

DDR1 = target: T8, DDR1 (Homo sapiens, UniProt Q08345)
T8 construct: purchased DiscoveRx KINOMEscan
How it was run: as §1

FLT3 = target: T9, FLT3 (Homo sapiens, UniProt P36888)
T9 construct: purchased DiscoveRx KINOMEscan
How it was run: as §1

TIE1 = target: T10, TIE1 (Homo sapiens, UniProt P35590)
T10 construct: purchased DiscoveRx KINOMEscan
How it was run: as §1

DAPK2 = target: T11, DAPK2 (Homo sapiens, UniProt Q9UIK4)
T11 construct: purchased DiscoveRx KINOMEscan
How it was run: as §1

IKK-alpha = target: T12, IKK-alpha (Homo sapiens, UniProt O15111)
T12 construct: purchased DiscoveRx KINOMEscan
How it was run: as §1

EPHA8 = target: T13, EPHA8 (Homo sapiens, UniProt P29322)
T13 construct: purchased DiscoveRx KINOMEscan
How it was run: as §1

DYRK1A = target: T14, DYRK1A (Homo sapiens, UniProt Q13627)
T14 construct: purchased DiscoveRx KINOMEscan
How it was run: as §1

FES = target: T15, FES (Homo sapiens, UniProt P07332)
T15 construct: purchased DiscoveRx KINOMEscan
How it was run: as §1

[1] = target: T16, RSK3(Kin.Dom.1-N-terminal) (Homo sapiens, UniProt Q15349)
T16 construct: RSK3(Kin.Dom.1-N-terminal); purchased DiscoveRx KINOMEscan
How it was run: as §1

GCN2(Kin.Dom.2,S808G) = target: T17, GCN2(Kin.Dom.2,S808G) (Homo sapiens, UniProt Q9P2K8, S808G)
T17 construct: GCN2(Kin.Dom.2,S808G); purchased DiscoveRx KINOMEscan

CASK = target: T18, CASK (Homo sapiens, UniProt O14936)
T18 construct: purchased DiscoveRx KINOMEscan
How it was run: as §1

ERBB2 = target: T19, ERBB2 (Homo sapiens, UniProt P04626)
T19 construct: purchased DiscoveRx KINOMEscan
How it was run: as §1

EPHB6 = target: T20, EPHB6 (Homo sapiens, UniProt O15197)
T20 construct: purchased DiscoveRx KINOMEscan
How it was run: as §1

ALK = target: T21, ALK (Homo sapiens, UniProt Q9UM73)
T21 construct: purchased DiscoveRx KINOMEscan
How it was run: as §1

SGK3 = target: T22, SGK3 (Homo sapiens, UniProt Q96BR1)
T22 construct: purchased DiscoveRx KINOMEscan
How it was run: as §1

AAK1 = target: T23, AAK1 (Homo sapiens, UniProt Q2M2I8)
T23 construct: purchased DiscoveRx KINOMEscan
How it was run: as §1

PIP5K2B = target: T24, PIP5K2B (Homo sapiens, UniProt P78356)
T24 construct: purchased DiscoveRx KINOMEscan
How it was run: as §1

CDC2L2 = target: T25, CDC2L2 (Homo sapiens, UniProt Q9UQ88)
T25 construct: purchased DiscoveRx KINOMEscan
How it was run: as §1

MYLK = target: T26, MYLK (Homo sapiens, UniProt Q15746)
T26 construct: purchased DiscoveRx KINOMEscan
How it was run: as §1

GRK4 = target: T27, GRK4 (Homo sapiens, UniProt P32298)
T27 construct: purchased DiscoveRx KINOMEscan
How it was run: as §1

PLK1 = target: T28, PLK1 (Homo sapiens, UniProt P53350)
T28 construct: purchased DiscoveRx KINOMEscan
How it was run: as §1

MRCKA = target: T29, MRCKA (Homo sapiens, UniProt Q5VT25)
T29 construct: purchased DiscoveRx KINOMEscan
How it was run: as §1

TXK = target: T30, TXK (Homo sapiens, UniProt P42681)
T30 construct: purchased DiscoveRx KINOMEscan
How it was run: as §1

T22 sequence (Q96BR1 whole entry): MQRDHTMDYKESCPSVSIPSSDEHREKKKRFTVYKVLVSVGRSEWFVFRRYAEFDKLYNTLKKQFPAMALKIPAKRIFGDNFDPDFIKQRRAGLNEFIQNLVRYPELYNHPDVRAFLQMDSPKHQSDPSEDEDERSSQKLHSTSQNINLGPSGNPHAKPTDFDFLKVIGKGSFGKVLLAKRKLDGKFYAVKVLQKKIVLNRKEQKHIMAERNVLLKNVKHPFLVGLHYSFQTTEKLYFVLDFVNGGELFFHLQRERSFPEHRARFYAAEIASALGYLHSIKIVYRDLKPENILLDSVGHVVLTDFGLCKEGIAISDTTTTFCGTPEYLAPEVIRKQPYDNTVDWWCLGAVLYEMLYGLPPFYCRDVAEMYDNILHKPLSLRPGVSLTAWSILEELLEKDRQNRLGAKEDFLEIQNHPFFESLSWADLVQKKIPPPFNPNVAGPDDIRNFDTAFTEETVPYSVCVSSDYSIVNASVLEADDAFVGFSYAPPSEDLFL
T28 sequence (P53350 whole entry): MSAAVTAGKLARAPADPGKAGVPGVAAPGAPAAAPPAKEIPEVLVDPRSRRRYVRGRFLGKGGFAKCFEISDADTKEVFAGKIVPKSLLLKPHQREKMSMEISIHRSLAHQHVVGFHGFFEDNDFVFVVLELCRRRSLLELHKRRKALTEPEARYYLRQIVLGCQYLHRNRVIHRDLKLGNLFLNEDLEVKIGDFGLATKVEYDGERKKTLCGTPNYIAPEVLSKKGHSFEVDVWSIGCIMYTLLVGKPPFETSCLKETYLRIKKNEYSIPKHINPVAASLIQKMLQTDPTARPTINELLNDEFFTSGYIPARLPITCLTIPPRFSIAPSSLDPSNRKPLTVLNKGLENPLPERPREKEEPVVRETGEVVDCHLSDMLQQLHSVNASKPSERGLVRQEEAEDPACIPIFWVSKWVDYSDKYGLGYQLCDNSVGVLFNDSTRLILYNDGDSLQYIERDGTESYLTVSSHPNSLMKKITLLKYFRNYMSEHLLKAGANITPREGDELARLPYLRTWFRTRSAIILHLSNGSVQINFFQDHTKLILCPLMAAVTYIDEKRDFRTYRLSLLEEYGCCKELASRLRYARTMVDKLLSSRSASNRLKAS
T21 sequence (Q9UM73 19-1620): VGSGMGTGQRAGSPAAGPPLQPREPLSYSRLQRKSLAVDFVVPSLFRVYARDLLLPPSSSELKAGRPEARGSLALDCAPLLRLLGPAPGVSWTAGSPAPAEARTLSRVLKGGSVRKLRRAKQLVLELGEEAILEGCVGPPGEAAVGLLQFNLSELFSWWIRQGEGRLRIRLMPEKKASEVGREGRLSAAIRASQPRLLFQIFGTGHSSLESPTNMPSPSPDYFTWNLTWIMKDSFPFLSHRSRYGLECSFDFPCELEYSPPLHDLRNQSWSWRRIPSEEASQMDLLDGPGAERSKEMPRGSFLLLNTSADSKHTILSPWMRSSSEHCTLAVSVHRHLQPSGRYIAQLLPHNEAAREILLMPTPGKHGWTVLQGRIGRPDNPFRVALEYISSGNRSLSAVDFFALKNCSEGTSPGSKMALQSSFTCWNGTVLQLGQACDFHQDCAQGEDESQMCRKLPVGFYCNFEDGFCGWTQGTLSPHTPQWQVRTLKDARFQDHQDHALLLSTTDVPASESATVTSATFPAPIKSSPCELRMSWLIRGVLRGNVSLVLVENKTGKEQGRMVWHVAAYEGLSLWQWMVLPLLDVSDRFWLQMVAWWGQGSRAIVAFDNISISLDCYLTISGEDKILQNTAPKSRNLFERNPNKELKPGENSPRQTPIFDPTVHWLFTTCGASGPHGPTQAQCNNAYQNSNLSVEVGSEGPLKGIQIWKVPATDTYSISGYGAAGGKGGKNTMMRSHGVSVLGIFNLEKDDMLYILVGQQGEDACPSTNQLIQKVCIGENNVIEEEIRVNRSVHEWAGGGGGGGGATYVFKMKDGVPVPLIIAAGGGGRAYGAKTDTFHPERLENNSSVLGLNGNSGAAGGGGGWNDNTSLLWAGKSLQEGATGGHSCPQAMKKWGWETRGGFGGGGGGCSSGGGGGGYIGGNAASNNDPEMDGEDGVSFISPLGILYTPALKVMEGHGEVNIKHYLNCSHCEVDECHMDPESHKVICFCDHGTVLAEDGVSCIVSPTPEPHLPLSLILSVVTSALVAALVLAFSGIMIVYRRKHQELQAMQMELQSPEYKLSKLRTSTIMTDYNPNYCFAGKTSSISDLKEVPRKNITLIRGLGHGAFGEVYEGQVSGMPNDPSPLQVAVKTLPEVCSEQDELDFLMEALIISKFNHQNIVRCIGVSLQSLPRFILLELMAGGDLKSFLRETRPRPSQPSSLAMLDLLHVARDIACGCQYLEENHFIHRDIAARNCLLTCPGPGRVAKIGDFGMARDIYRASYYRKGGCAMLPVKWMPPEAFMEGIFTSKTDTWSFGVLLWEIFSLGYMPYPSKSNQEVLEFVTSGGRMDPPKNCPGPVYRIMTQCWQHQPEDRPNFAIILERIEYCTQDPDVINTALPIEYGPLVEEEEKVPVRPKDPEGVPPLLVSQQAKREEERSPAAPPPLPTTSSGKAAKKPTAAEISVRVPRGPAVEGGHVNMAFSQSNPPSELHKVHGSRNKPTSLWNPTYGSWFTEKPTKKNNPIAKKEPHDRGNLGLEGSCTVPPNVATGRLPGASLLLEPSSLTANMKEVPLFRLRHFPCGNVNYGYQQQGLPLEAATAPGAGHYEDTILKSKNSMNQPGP
T10 sequence (P35590 22-1138): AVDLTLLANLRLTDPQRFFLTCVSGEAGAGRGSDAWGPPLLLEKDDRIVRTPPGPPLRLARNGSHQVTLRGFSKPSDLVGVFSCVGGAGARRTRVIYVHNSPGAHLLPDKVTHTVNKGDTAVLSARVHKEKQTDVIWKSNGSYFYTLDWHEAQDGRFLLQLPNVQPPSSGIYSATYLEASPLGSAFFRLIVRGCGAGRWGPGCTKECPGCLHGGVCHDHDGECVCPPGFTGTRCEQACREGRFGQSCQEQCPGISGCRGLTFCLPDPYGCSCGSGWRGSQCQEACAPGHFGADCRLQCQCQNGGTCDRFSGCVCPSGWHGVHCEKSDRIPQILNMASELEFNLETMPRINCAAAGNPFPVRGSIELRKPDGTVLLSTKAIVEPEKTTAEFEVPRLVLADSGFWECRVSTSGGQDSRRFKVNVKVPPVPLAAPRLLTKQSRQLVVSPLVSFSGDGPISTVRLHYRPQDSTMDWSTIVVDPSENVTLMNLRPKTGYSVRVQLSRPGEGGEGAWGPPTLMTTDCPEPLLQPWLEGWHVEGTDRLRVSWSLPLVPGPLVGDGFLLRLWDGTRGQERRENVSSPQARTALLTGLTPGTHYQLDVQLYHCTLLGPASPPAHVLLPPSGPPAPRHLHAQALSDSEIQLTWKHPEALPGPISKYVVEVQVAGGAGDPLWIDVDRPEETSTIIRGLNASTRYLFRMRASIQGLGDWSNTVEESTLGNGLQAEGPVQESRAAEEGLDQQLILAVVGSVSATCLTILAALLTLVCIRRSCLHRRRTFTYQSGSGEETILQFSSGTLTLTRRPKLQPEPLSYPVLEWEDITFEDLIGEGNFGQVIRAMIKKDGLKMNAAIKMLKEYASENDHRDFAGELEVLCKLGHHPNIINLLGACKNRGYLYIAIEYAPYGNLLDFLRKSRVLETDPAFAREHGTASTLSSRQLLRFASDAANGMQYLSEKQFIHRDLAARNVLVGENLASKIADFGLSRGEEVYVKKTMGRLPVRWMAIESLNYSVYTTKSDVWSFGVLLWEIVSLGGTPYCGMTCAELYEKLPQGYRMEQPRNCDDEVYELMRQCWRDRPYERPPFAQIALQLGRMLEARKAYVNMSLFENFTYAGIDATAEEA
T9 sequence (P36888 27-993): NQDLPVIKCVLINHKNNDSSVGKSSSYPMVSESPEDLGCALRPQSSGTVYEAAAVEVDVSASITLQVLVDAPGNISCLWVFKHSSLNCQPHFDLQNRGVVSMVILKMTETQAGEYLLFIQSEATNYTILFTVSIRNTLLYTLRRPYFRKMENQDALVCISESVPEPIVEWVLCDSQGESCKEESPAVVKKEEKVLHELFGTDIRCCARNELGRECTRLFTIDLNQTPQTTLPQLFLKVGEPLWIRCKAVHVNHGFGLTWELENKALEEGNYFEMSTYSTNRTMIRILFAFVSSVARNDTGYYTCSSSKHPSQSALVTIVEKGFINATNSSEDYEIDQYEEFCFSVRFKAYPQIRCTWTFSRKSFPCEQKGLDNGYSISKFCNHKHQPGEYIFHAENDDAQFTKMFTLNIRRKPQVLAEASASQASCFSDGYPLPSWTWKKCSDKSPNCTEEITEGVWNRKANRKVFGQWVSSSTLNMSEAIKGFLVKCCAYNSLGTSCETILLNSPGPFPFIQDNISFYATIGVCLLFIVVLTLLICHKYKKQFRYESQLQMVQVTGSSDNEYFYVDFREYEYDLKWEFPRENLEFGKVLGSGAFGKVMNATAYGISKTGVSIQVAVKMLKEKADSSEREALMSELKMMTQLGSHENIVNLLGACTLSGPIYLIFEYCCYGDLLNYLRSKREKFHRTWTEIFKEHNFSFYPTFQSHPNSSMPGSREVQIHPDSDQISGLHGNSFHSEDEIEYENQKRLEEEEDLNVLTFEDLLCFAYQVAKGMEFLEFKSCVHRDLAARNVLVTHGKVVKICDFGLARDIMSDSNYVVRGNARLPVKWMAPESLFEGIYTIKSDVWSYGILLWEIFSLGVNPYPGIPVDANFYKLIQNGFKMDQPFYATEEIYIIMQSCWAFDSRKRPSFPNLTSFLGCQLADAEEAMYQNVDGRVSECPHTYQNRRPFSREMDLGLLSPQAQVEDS

Cc1ccc(C2=Nc3cccnc3S(=O)(=O)c3ccccc32)cc1 [TBPT, 6-(p-tolyl)benzo[f] pyrido[2,3-b][1,4] thiazepine 11,11-dioxide] gave a remaining binding at 5 µM (PFTAIRE2; 5 μM) of 100%, a remaining binding at 10 µM (PFTAIRE2; 10 μM) of 89% and a remaining binding at 5 µM (ERK1; 5 μM) of 100%. The remaining binding at 10 µM (ERK1; 10 μM) was 100%, the remaining binding at 5 µM (HIPK2; 5 μM) was 100% and the remaining binding at 10 µM (HIPK2; 10 μM) was 100%. It also gave a remaining binding at 5 µM (ULK3; 5 μM) of 100%, a remaining binding at 10 µM (ULK3; 10 μM) of 100% and a remaining binding at 5 µM (EPHA3; 5 μM) of 80%. For the same molecule, the remaining binding at 10 µM (EPHA3; 10 μM) was 100%, the remaining binding at 5 µM (VRK2; 5 μM) was 100% and the remaining binding at 10 µM (VRK2; 10 μM) was 69%. For the same molecule, the remaining binding at 5 µM (NLK; 5 μM) was 83%, the remaining binding at 10 µM (NLK; 10 μM) was 89% and the remaining binding at 5 µM (DDR1; 5 μM) was 100%. The remaining binding at 10 µM (DDR1; 10 μM) was 92%, the remaining binding at 5 µM (FLT3; 5 μM) was 100% and the remaining binding at 10 µM (FLT3; 10 μM) was 68%. The remaining binding at 5 µM (TIE1; 5 μM) was 100%, the remaining binding at 10 µM (TIE1; 10 μM) was 98% and the remaining binding at 5 µM (DAPK2; 5 μM) was 100%. The remaining binding at 10 µM (DAPK2; 10 μM) was 99%, the remaining binding at 5 µM (IKK-alpha; 5 μM) was 56% and the remaining binding at 10 µM (IKK-alpha; 10 μM) was 75%. It also gave a remaining binding at 5 µM (EPHA8; 5 μM) of 96%, a remaining binding at 10 µM (EPHA8; 10 μM) of 93% and a remaining binding at 5 µM (DYRK1A; 5 μM) of 88%. It also gave a remaining binding at 10 µM (DYRK1A; 10 μM) of 100%, a remaining binding at 5 µM (FES; 5 μM) of 100% and a remaining binding at 10 µM (FES; 10 μM) of 98%. It also gave a remaining binding at 5 µM ([1]; 5 μM) of 100%, a remaining binding at 10 µM ([1]; 10 μM) of 82% and a remaining binding at 5 µM (GCN2(Kin.Dom.2,S808G); 5 μM) of 100%. The remaining binding at 10 µM (GCN2(Kin.Dom.2,S808G); 10 μM) was 100%, the remaining binding at 5 µM (CASK; 5 μM) was 100% and the remaining binding at 10 µM (CASK; 10 μM) was 100%. The remaining binding at 5 µM (ERBB2; 5 μM) was 100%, the remaining binding at 10 µM (ERBB2; 10 μM) was 100% and the remaining binding at 5 µM (EPHB6; 5 μM) was 99%. For the same molecule, the remaining binding at 10 µM (EPHB6; 10 μM) was 100%, the remaining binding at 5 µM (ALK; 5 μM) was 100% and the remaining binding at 10 µM (ALK; 10 μM) was 71%. It also gave a remaining binding at 5 µM (SGK3; 5 μM) of 100%, a remaining binding at 10 µM (SGK3; 10 μM) of 99% and a remaining binding at 5 µM (AAK1; 5 μM) of 100%. The remaining binding at 10 µM (AAK1; 10 μM) was 89%, the remaining binding at 5 µM (PIP5K2B; 5 μM) was 100% and the remaining binding at 10 µM (PIP5K2B; 10 μM) was 100%. It also gave a remaining binding at 5 µM (CDC2L2; 5 μM) of 100%, a remaining binding at 10 µM (CDC2L2; 10 μM) of 100% and a remaining binding at 5 µM (MYLK; 5 μM) of 100%. For the same molecule, the remaining binding at 10 µM (MYLK; 10 μM) was 81%, the remaining binding at 5 µM (GRK4; 5 μM) was 100% and the remaining binding at 10 µM (GRK4; 10 μM) was 95%. For the same molecule, the remaining binding at 5 µM (PLK1; 5 μM) was 76%, the remaining binding at 10 µM (PLK1; 10 μM) was 80% and the remaining binding at 5 µM (MRCKA; 5 μM) was 89%. For the same molecule, the remaining binding at 10 µM (MRCKA; 10 μM) was 99%, the remaining binding at 5 µM (TXK; 5 μM) was 100% and the remaining binding at 10 µM (TXK; 10 μM) was 75%.
